Experimental findings from PubChem BioAssay (NCI) are described below.

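Grown in 96-well plates, cells were treated for 48 hours with each compound at five concentrations. Insufficient inhibition: endpoint recorded as highest concentration tested. GI50 = concentration required for 50% inhibition of growth. TGI denotes the concentration required for complete inhibition of growth.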

Holding throughout (test): NCI-60 cell line screen, 48 h
Assay [1] concerns A549 NSCLC.
In assay [2] the test system is NCI-H23 lung.
The test system of assay [3] is COLO 205 colon.
The subject of assay [4] is NCI-H226 lung.
The test system of assay [5] is HOP-62 NSCLC.
In assay [6] the test system is IGROV1 ovarian.
The test system of assay [7] is CCRF-CEM leukemia.
The test system of assay [8] is UACC-257 melanoma.

Regarding `COC1OC(COS(=O)(=O)c2ccc(C)cc2)C(O)C(OS(=O)(=O)c2ccc(C)cc2)C1OS(=O)(=O)c1ccc(C)cc1` (centres undefined), the TGI in assay [1], in assay [2], in assay [3], in assay [4], in assay [5] and in assay [6] was greater than 100 µM each time. The TGI in assay [7] and in assay [8] was greater than 100 µM in each case.
Regarding `COc1ccc(C(=O)CC(=O)C(=O)Nc2ccc(C)c(C)c2)cc1`, the TGI in assay [1] was greater than 100 µM; in assay [2], greater than 100 µM; in assay [3], greater than 82.4 µM; in assay [4] it was greater than 100 µM; in assay [5] it was greater than 100 µM; in assay [6], greater than 100 µM. The TGI in assay [7] was greater than 74.5 µM; in assay [8] it was greater than 100 µM.
As for `CC(=O)OC1CC2C(C)(C)C(=O)C=C[C@]2(C)C2CCC3(C)C(c4ccoc4)[C@@H](O)[C@H]4O[C@]43[C@]12C` (some centres undefined), the TGI in assay [1] was 85.7 µM; in assay [2] it was 34.4 µM; in assay [3] it was 37.6 µM; in assay [4], 33.5 µM; in assay [5], 42.6 µM; in assay [6] it was 46.2 µM. In addition, the figures for the TGI in assay [7] and in assay [8] were 54 µM and 41.6 µM, respectively.
On to `NC(=O)Nc1c([N+](=O)[O-])cc(C(F)(F)F)cc1[N+](=O)[O-]`, for which the TGI in assay [1] is greater than 100 µM; in assay [2], greater than 100 µM; in assay [3], 98.1 µM; in assay [4] it was greater than 100 µM; in assay [5], greater than 100 µM; in assay [6] it was greater than 100 µM. Besides, the TGI in assay [7] and in assay [8] was greater than 100 µM each time.
On to `COC(=O)C1=C(c2ccc3c(c2)OCO3)OC(c2ccc3c(c2)OCO3)C1` (centres undefined), for which the TGI in assay [1], in assay [2], in assay [3], in assay [4], in assay [5] and in assay [6] was greater than 100 µM in each case. Moreover, the TGI in assay [7] and in assay [8] was greater than 100 µM throughout.
Consider `CCOC(=O)N[C@@H]1C2CC(=O)C(O2)[C@@H]1OC` (some centres undefined), for which the TGI in assay [1], in assay [2], in assay [3], in assay [4], in assay [5] and in assay [6] was greater than 100 µM in each case. Besides, the TGI in assay [7] and in assay [8] was greater than 100 µM throughout.
On to `O=C(O)c1cccc2cccc(C(=O)O)c12.[Hg]`, for which the GI50 in assay [1] was 20.4 µM; in assay [2], 15.7 µM; in assay [3], 3.1 µM; in assay [4], 21.1 µM; in assay [5], 20.8 µM; in assay [6] it was 15.8 µM. The GI50 is 6.92 µM in assay [7] and 16.7 µM in assay [8]. Moreover, the TGI in assay [1] was determined as 42.3 µM; in assay [2] it was 29.9 µM; in assay [3], 14.5 µM; in assay [4], 40.7 µM; in assay [5], 35.3 µM; in assay [6], 29.2 µM. Besides, the results for the TGI in assay [7] and in assay [8] were 29.2 µM and 30.8 µM, respectively.
Turning to `COC(=O)C(Cc1ccccc1)NC(=O)Cn1ccnc1[N+](=O)[O-]` (centres undefined), the TGI in assay [1], in assay [2], in assay [3], in assay [4], in assay [5] and in assay [6] was greater than 100 µM each time. The TGI in assay [7] and in assay [8] was greater than 100 µM throughout.
Take `CCC[CH2][Sn]1([CH2]CCC)[O]CC(CN2CCOCC2)[O]1` (centres undefined): the GI50 was 18.3 µM in assay [1]; 2.41 µM in assay [2]; 3.58 µM in assay [3]; 20.2 µM in assay [4]; 8.8 µM in assay [5]; 12.1 µM in assay [6]. Moreover, the GI50 in assay [7] is 0.995 µM; in assay [8] it was 4.29 µM. Moreover, the TGI in assay [1] was 32.2 µM; in assay [2], 6.13 µM; in assay [3], 9.59 µM; in assay [4], 34.8 µM; in assay [5], 20.4 µM; in assay [6] it was 26.1 µM. Moreover, the TGI was 4.84 µM in assay [7] and 15.1 µM in assay [8].
As for `COc1ccc(C(=O)C(C(=O)C(=O)NC2C3CC4CC(C3)CC2C4)c2ccc(OC)cc2)cc1` (centres undefined), the TGI in assay [1], in assay [2], in assay [3], in assay [4], in assay [5] and in assay [6] was greater than 100 µM throughout. The TGI in assay [7] and in assay [8] was greater than 100 µM in each case.
Take `CCCCCNC(=O)c1c(O)[nH]c(=S)[nH]c1=O`: the TGI in assay [1], in assay [2], in assay [3], in assay [4], in assay [5] and in assay [6] was greater than 100 µM throughout. The TGI in assay [7] and in assay [8] was greater than 100 µM each time.
